Read-outs that look alike come from different tables or passages of the source. Numbered stars: 1 amine (or outer) side, 2 acyl side, 3 side chain; on linkers, the order of the positions; unused ones are H or OH. Bridge positions count the residues as written; N and C are the ends. Square brackets hold non-standard residues; d marks the D form. Side chains are listed from the residue outwards. Peptide text beside a SMILES is read from it. * marks the point of attachment. γGlu = O=C(O)[C@H](CCC(=O)[*:2])N[*:1]; Palmitoyl = CCCCCCCCCCCCCCCC(=O)*; Aib = CC(C)(N)C(=O)O
Target: glucagon receptor (Homo sapiens, UniProt P47871)
Sequence (P47871 26-477): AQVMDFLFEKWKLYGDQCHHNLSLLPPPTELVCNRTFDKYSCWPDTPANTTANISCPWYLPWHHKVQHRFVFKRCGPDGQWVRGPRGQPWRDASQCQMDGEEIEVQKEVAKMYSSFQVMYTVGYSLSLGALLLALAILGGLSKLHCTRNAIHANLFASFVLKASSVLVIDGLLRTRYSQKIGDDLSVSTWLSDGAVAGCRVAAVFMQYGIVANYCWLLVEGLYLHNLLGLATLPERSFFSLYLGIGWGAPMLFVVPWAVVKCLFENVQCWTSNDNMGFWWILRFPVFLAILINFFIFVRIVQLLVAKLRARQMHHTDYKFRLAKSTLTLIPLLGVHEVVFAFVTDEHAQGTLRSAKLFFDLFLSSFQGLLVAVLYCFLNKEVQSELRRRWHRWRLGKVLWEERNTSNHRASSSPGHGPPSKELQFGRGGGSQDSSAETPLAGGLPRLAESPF
Assay: Functional assay, cAMP synthesis: luciferase reporter in HEK293 cells co-transfected with glucagon receptor
[1] = EC50 at Glucagon Receptor, Table 31

Row | Structure (SMILES) | EC50 [1] [nM] | other results
1 | CSCC[C@H](NC(=O)[C@H](CC(C)C)NC(=O)[C@H](Cc1c[nH]c2ccccc12)NC(=O)[C@H](CCC(N)=O)NC(=O)[C@@H](NC(=O)[C@H](Cc1ccccc1)NC(=O)[C@H](CC(=O)O)NC(=O)[C@H](CCC(N)=O)NC(=O)[C@H](C)NC(=O)[C@H](CCCNC(=N)N)NC(=O)[C@H](CCCNC(=N)N)NC(=O)C(C)(C)NC(=O)[C@H](CC(=O)O)NC(=O)[C@H](CC(C)C)NC(=O)[C@H](Cc1ccc(O)cc1)NC(=O)[C@H](CCCCN)NC(=O)[C@H](CO)NC(=O)[C@H](Cc1ccc(O)cc1)NC(=O)[C@H](CC(=O)O)NC(=O)[C@H](CO)NC(=O)[C@@H](NC(=O)[C@H](Cc1ccccc1)NC(=O)[C@@H](NC(=O)CNC(=O)[C@H](CCC(N)=O)NC(=O)C(C)(C)NC(=O)[C@@H](N)Cc1c[nH]cn1)[C@@H](C)O)[C@@H](C)O)C(C)C)C(=O)N[C@@H](CC(N)=O)C(=O)N[C@H](C(N)=O)[C@@H](C)O [Peptide 26] (H-H[Aib]QGTFTSDYSKYLD[Aib]RRAQDFVQWLMNT-NH2; N-terminus assumed) |  | EC50 (read-out: EC50 at Glucagon Receptor, Table 22): 0.653 ± 0.285 nM
2 | CSCC[C@H](NC(=O)[C@H](CC(C)C)NC(=O)[C@H](Cc1c[nH]c2ccccc12)NC(=O)[C@H](CC(N)=O)NC(=O)[C@@H](NC(=O)[C@H](Cc1ccccc1)NC(=O)[C@H](CCC(=O)O)NC(=O)[C@@H]1CCCCNC(=O)CC[C@H](NC(=O)[C@H](CC(=O)O)NC(=O)[C@H](CC(C)C)NC(=O)[C@H](Cc2ccc(O)cc2)NC(=O)[C@H](CCCCN)NC(=O)[C@H](CO)NC(=O)[C@H](Cc2ccc(O)cc2)NC(=O)[C@H](CC(=O)O)NC(=O)[C@H](CO)NC(=O)[C@@H](NC(=O)[C@H](Cc2ccccc2)NC(=O)[C@@H](NC(=O)CNC(=O)[C@H](CCC(N)=O)NC(=O)[C@H](CO)NC(=O)[C@@H](N)Cc2ccc(O)cc2)[C@@H](C)O)[C@@H](C)O)C(=O)N[C@@H](CCC(N)=O)C(=O)N[C@@H](C)C(=O)N[C@@H](C)C(=O)N1)C(C)C)C(=O)N[C@@H](CC(N)=O)C(=O)NCC(=O)NCC(=O)N1CCC[C@H]1C(=O)N[C@@H](CO)C(=O)N[C@@H](CO)C(=O)NCC(=O)N[C@@H](C)C(=O)N1CCC[C@H]1C(=O)N1CCC[C@H]1C(=O)N1CCC[C@H]1C(=O)N[C@@H](CO)C(N)=O [SEQ ID NO: 555] (H-YSQGTFTSDYSKYLDEQAAKEFVNWLMNGGPSSGAPPPS-NH2; lactam 16-20; N-terminus assumed) |  | EC50 (EC50, Glucagon receptor, Table 18): 0.044 nM
3 | CCCCCCCCCCCCCCCC(=O)NCCCC[C@H](NC(=O)[C@H](CC(=O)O)NC(=O)[C@H](CO)NC(=O)[C@@H](NC(=O)[C@H](Cc1ccccc1)NC(=O)[C@@H](NC(=O)CNC(=O)[C@H](CCC(=O)O)NC(=O)C(C)(C)NC(=O)[C@@H](N)Cc1c[nH]cn1)[C@@H](C)O)[C@@H](C)O)C(=O)N[C@@H](CO)C(=O)N[C@@H](CCCCN)C(=O)N[C@@H](Cc1ccc(O)cc1)C(=O)N[C@@H](CC(C)C)C(=O)N[C@@H](CC(=O)O)C(=O)N[C@@H](CCC(=O)O)C(=O)N[C@@H](CCC(N)=O)C(=O)N[C@@H](C)C(=O)N[C@@H](C)C(=O)N[C@@H](CCCCN)C(=O)N[C@@H](CCC(=O)O)C(=O)N[C@@H](Cc1ccccc1)C(=O)N[C@H](C(=O)N[C@@H](C)C(=O)N[C@@H](Cc1c[nH]c2ccccc12)C(=O)N[C@@H](CC(C)C)C(=O)N[C@@H](CCSC)C(=O)N[C@@H](CC(N)=O)C(=O)N[C@H](C(N)=O)[C@@H](C)O)[C@@H](C)CC [compound 647] (H-H[Aib]EGTFTSDK(Palmitoyl)SKYLDEQAAKEFIAWLMNT-NH2; N-terminus assumed) | 46.1 | 
4 | CCCCCCCCCCCCCCCC(=O)N[C@@H](CCC(=O)N[C@@H](CCC(=O)NCCCC[C@H](NC(=O)[C@H](CC(=O)O)NC(=O)[C@H](CO)NC(=O)[C@@H](NC(=O)[C@H](Cc1ccccc1)NC(=O)[C@@H](NC(=O)CNC(=O)[C@H](CCC(N)=O)NC(=O)C(C)(C)NC(=O)[C@@H](N)Cc1c[nH]cn1)[C@@H](C)O)[C@@H](C)O)C(=O)N[C@@H](CO)C(=O)N[C@@H](CCCCN)C(=O)N[C@@H](Cc1ccc(O)cc1)C(=O)N[C@@H](CC(C)C)C(=O)N[C@@H](CC(=O)O)C(=O)NC(C)(C)C(=O)N[C@@H](CCCNC(=N)N)C(=O)N[C@@H](C)C(=O)N[C@@H](C)C(=O)N[C@@H](CCC(N)=O)C(=O)N[C@@H](CC(=O)O)C(=O)N[C@@H](Cc1ccccc1)C(=O)N[C@H](C(=O)N[C@@H](CCC(N)=O)C(=O)N[C@@H](Cc1c[nH]c2ccccc12)C(=O)N[C@@H](CC(C)C)C(=O)N[C@@H](CCSC)C(=O)N[C@@H](CC(=O)O)C(=O)N[C@H](C(N)=O)[C@@H](C)O)C(C)C)C(=O)O)C(=O)O [compound 655] (H-H[Aib]QGTFTSDK([γGlu-γGlu-Palmitoyl])SKYLD[Aib]RAAQDFVQWLMDT-NH2; N-terminus assumed) | 0.003 | 
5 | CCCCCCCCCCCCCCCC(=O)N[C@@H](CCC(=O)NCCCC[C@H](NC(=O)[C@H](CC(=O)O)NC(=O)[C@H](CO)NC(=O)[C@@H](NC(=O)[C@H](Cc1ccccc1)NC(=O)[C@@H](NC(=O)CNC(=O)[C@H](CCC(N)=O)NC(=O)C(C)(C)NC(=O)[C@@H](N)Cc1cnc[nH]1)[C@@H](C)O)[C@@H](C)O)C(=O)N[C@@H](CO)C(=O)N[C@@H](CCCCN)C(=O)N[C@@H](Cc1ccc(O)cc1)C(=O)N[C@@H](CC(C)C)C(=O)N[C@@H](CC(=O)O)C(=O)NC(C)(C)C(=O)N[C@@H](CCCNC(=N)N)C(=O)N[C@@H](C)C(=O)N[C@@H](C)C(=O)N[C@@H](CCC(N)=O)C(=O)N[C@@H](CC(=O)O)C(=O)N[C@@H](Cc1ccccc1)C(=O)N[C@H](C(=O)N[C@@H](CCC(N)=O)C(=O)N[C@@H](Cc1c[nH]c2ccccc12)C(=O)N[C@@H](CC(C)C)C(=O)N[C@@H](CCSC)C(=O)N[C@@H](CC(=O)O)C(=O)N[C@H](C(N)=O)[C@@H](C)O)C(C)C)C(=O)O [compound 656] | 0.006 | 

More lines, main results first:

Row | EC50 [1] [nM] | Structure (SMILES) | other results
6 | 0.008 | CCCCCCCCCCCCCCCC(=O)N[C@@H](CCC(=O)N[C@@H](CCC(=O)NCCCC[C@H](NC(=O)[C@H](CC(=O)O)NC(=O)[C@H](CO)NC(=O)[C@@H](NC(=O)[C@H](Cc1ccccc1)NC(=O)[C@@H](NC(=O)CNC(=O)[C@H](CCC(N)=O)NC(=O)[C@@H](CO)NC(=O)[C@@H](N)Cc1c[nH]cn1)[C@@H](C)O)[C@@H](C)O)C(=O)N[C@@H](CO)C(=O)N[C@@H](CCCCN)C(=O)N[C@@H](Cc1ccc(O)cc1)C(=O)N[C@@H](CC(C)C)C(=O)N[C@@H](CC(=O)O)C(=O)N[C@@H](CCC(=O)O)C(=O)N[C@@H](CCC(N)=O)C(=O)N[C@@H](C)C(=O)N[C@@H](C)C(=O)N[C@@H](CCCCN)C(=O)N[C@@H](CCC(=O)O)C(=O)N[C@@H](Cc1ccccc1)C(=O)N[C@H](C(=O)N[C@@H](C)C(=O)N[C@@H](Cc1c[nH]c2ccccc12)C(=O)N[C@@H](CC(C)C)C(=O)N[C@@H](CCSC)C(=O)N[C@@H](CC(N)=O)C(=O)N[C@H](C(N)=O)[C@@H](C)O)[C@@H](C)CC)C(=O)O)C(=O)O [compound 644] | 
7 | 0.025 | CCCCCCCCCCCCCCCC(=O)N[C@@H](CCC(=O)NCCCC[C@H](NC(=O)[C@H](CC(=O)O)NC(=O)[C@H](CO)NC(=O)[C@@H](NC(=O)[C@H](Cc1ccccc1)NC(=O)[C@@H](NC(=O)CNC(=O)[C@H](CCC(N)=O)NC(=O)C(C)(C)NC(=O)[C@@H](N)Cc1c[nH]cn1)[C@@H](C)O)[C@@H](C)O)C(=O)N[C@@H](CO)C(=O)N[C@@H](CCCCN)C(=O)N[C@@H](Cc1ccc(O)cc1)C(=O)N[C@@H](CC(C)C)C(=O)N[C@@H](CC(=O)O)C(=O)N[C@@H](CCC(=O)O)C(=O)N[C@@H](CCC(N)=O)C(=O)N[C@@H](C)C(=O)N[C@@H](C)C(=O)N[C@@H](CCCCN)C(=O)N[C@@H](CCC(=O)O)C(=O)N[C@@H](Cc1ccccc1)C(=O)N[C@H](C(=O)N[C@@H](C)C(=O)N[C@@H](Cc1c[nH]c2ccccc12)C(=O)N[C@@H](CC(C)C)C(=O)N[C@@H](CCSC)C(=O)N[C@@H](CC(N)=O)C(=O)N[C@H](C(N)=O)[C@@H](C)O)[C@@H](C)CC)C(=O)O [compound 645] | 
8 | 2.92 | CCCCCCCCCCCCCCCC(=O)N[C@@H](CCC(=O)N[C@@H](CCC(=O)NCCCC[C@H](NC(=O)[C@H](CC(=O)O)NC(=O)[C@H](CO)NC(=O)[C@@H](NC(=O)[C@H](Cc1ccccc1)NC(=O)[C@@H](NC(=O)CNC(=O)[C@H](CCC(=O)O)NC(=O)C(C)(C)NC(=O)[C@@H](N)Cc1c[nH]cn1)[C@@H](C)O)[C@@H](C)O)C(=O)N[C@@H](CO)C(=O)N[C@@H](CCCCN)C(=O)N[C@@H](Cc1ccc(O)cc1)C(=O)N[C@@H](CC(C)C)C(=O)N[C@@H](CC(=O)O)C(=O)N[C@@H](CCC(=O)O)C(=O)N[C@@H](CCC(N)=O)C(=O)N[C@@H](C)C(=O)N[C@@H](C)C(=O)N[C@@H](CCCCN)C(=O)N[C@@H](CCC(=O)O)C(=O)N[C@@H](Cc1ccccc1)C(=O)N[C@H](C(=O)N[C@@H](C)C(=O)N[C@@H](Cc1c[nH]c2ccccc12)C(=O)N[C@@H](CC(C)C)C(=O)N[C@@H](CCSC)C(=O)N[C@@H](CC(N)=O)C(=O)N[C@H](C(N)=O)[C@@H](C)O)[C@@H](C)CC)C(=O)O)C(=O)O [compound 648] (H-H[Aib]EGTFTSDK([γGlu-γGlu-Palmitoyl])SKYLDEQAAKEFIAWLMNT-NH2; N-terminus assumed) | 
9 | 0.007 | CCCCCCCCCCCCCCCC(=O)N[C@@H](CCC(=O)N[C@@H](CCC(=O)NCCCC[C@H](NC(=O)[C@H](CC(=O)O)NC(=O)[C@H](CO)NC(=O)[C@@H](NC(=O)[C@H](Cc1ccccc1)NC(=O)[C@@H](NC(=O)CNC(=O)[C@H](CCC(N)=O)NC(=O)C(C)(C)NC(=O)[C@@H](N)Cc1c[nH]cn1)[C@@H](C)O)[C@@H](C)CC)C(=O)N[C@@H](CO)C(=O)N[C@@H](CCCCN)C(=O)N[C@@H](Cc1ccc(O)cc1)C(=O)N[C@@H](CC(C)C)C(=O)N[C@@H](CC(=O)O)C(=O)N[C@@H](CCC(=O)O)C(=O)N[C@@H](CCC(N)=O)C(=O)N[C@@H](C)C(=O)N[C@@H](C)C(=O)N[C@@H](CCCCN)C(=O)N[C@@H](CCC(=O)O)C(=O)N[C@@H](Cc1ccccc1)C(=O)N[C@H](C(=O)N[C@@H](C)C(=O)N[C@@H](Cc1c[nH]c2ccccc12)C(=O)N[C@@H](CC(C)C)C(=O)N[C@@H](CCSC)C(=O)N[C@@H](CC(N)=O)C(=O)N[C@H](C(N)=O)[C@@H](C)O)[C@@H](C)CC)C(=O)O)C(=O)O [compound 650] | 

Reference: patent US8969294B2 (Istituto di Recerche di Biologia Molecolare P. Angeletti …, priority 2008, dated 2015)
